Laboratory results taken from patent EP3057949B1, “SECONDARY ALCOHOL QUINOLINYL MODULATORS OF ROR GAMMA T” (Janssen Pharmaceutica NV, priority 2013, dated 2015).

Legend:
[1] = biological target: T1, human RORγt LBD (Homo sapiens, UniProt P51449); experiment: RORγt (LBD) Reporter Assay (GAL4 luciferase, HEK293T cells); assay type: cell-based; conditions: for IC50: compounds for 24 hours
T1 construct: expressed in transfected cells; host or cells: HEK293T
T1 sequence (P51449 258-518): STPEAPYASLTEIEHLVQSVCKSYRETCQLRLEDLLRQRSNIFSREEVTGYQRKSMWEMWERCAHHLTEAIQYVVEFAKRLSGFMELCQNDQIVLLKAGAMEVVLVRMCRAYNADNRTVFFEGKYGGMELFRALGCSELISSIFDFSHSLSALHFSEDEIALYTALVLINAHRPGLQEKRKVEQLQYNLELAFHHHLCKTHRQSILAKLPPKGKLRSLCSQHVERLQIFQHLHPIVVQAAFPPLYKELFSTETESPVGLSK
How it was run: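 HEK293T cells transiently co-transfected with GAL4 DBD–human RORγt LBD (pBIND, with renilla luciferase control) and GAL4-responsive firefly luciferase reporter, plated in phenol-red free DMEM with 5% lipid-reduced FCS. Compound exposure 24 h; firefly/renilla luminescence ratio plotted against compound concentration.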

[2] = biological target: T2, human RORγt ligand binding domain (RORγt LBD) (Homo sapiens, UniProt P51449); experiment: ThermoFluor® Assay (RORγt thermal shift binding); conditions: 0.065 mg/mL RORγt, 60 µM 1,8-ANS, pH 7.0; estimated from concentration response curves
T2 construct: His-tag (N); TurboTEV protease cleavage site (ENLYFQG) (N); made in house; host or cells: E. coli (pHIS1, modified pET vector)
T2 sequence (P51449 258-518): T1 sequence (P51449 258-518)
How it was run: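 Thermal shift of 0.065 mg/mL RORγt with 60 µM 1,8-ANS in 100 mM Hepes pH 7.0, 10 mM NaCl, 2.5 mM GSH, 0.002% Tween-20, heated at 1 °C/min; fluorescence at 500 nm. KD estimated from concentration-response of ΔTm.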

[3] = test system: IL-17 production by CD4 T cells; experiment: Human Th17 Assay (IL-17 production by CD4 T cells); assay type: cell-based; conditions: IL-17 in supernatant after 3 days, Th17 differentiation conditions
Source text: The human Thl7 assay tests the effect of RORyt modulatory compounds on IL-17 production by CD4 T cells under conditions which favor Th17 differentiation.
Total CD4^+ T cells were isolated from the peripheral blood mononuclear cells (PBMC) of healthy donors using a CD4^+ T cell isolation kit II, following the manufacturer's instructions (Miltenyi Biotec). Cells were resuspended in a medium of RPMI-1640 supplemented with 10% fetal bovine serum, penicillin, streptomycin, […], and β-mercaptoethanol and were added to 96-well plates at 1.5x10^5 per 100 µL per well. 50 µL of compound at titrated concentrations in DMSO were added into each well at final DMSO concentration at 0.2%. Cells were incubated for 1 hour, then 50 µL of Th17 cell differentiation medium was added to each well. The final concentrations of antibodies and cytokines (R&D Systems) in differentiation medium were: 3x10^6/mL anti-CD3/CD28 beads (prepared using human T cell activation/expansion kit, Miltenyi Biotec), 10 µg/mL anti-IL4, 10 µg/mL anti-IFNγ, 10 ng/mL IL1β, 10 ng/mL IL23, 50 ng/mL IL6, 3 ng/mL TGFβ and 20 U/mL IL2. Cells were cultured at 37 °C and 5% CO2 for 3 days. Supernatants were collected and the accumulated IL-17 in culture was measured by using MULTI-SPOT® Cytokine Plate following manufacture's instruction (Meso Scale Discovery). The plate was read using Sector Imager 6000, and IL-17 concentration was extrapolated from the standard curve. The IC50s were determined by GraphPad.

SMILES | inhibition at 6 µM ([1]; HEK-293T, 6 µM compound) [%] | IC50 [1] [nM] | Kd [2] [nM] | IC50 ([3]; Homo sapiens, CD4+ T, 72 h) [nM] | RORγt (LBD) Reporter Assay, % inhibition @ 6 µM ([1]; 6 µM compound, 6 µM) [%] | IC50 [3] [nM]
COc1nc2ccc(C(O)c3cnc(C)n3C)cc2c(Cl)c1Cc1ccc(C(F)(F)F)cc1 (single isomer, unassigned) [Example 15b, (4-Chloro-2-methoxy-3-(4-(trifluoromethyl)benzyl)quinolin-6-yl)(1,2-dimethyl-1H-imidazol-5-yl)methanol] | 100 | ~1000 | 69 | 120 | – | –
COc1nc2ccc(C(O)c3cnc(C)n3C)cc2c(Cl)c1Cc1ccc(C(F)(F)F)cc1 (single isomer, unassigned) [Example 15c, (4-Chloro-2-methoxy-3-(4-(trifluoromethyl)benzyl)quinolin-6-yl)(1,2-dimethyl-1H-imidazol-5-yl)methanol] | – | 80 | 40 | – | 101 | 130
